Assay results as given in patent US11046716B2, “Beta-lactamase inhibitors” (priority 2015, dated 2021).

Columns and labels:
KPC-2 = target: T1, KPC-2 (Klebsiella pneumoniae, UniProt Q9F663); test: β-lactamase enzyme inhibition assay, KPC-2 (imipenem substrate); format: biochemical; conditions: Class A; imipenem substrate, 300 nm; read-out: KPC-2
T1 construct: made in house; host or cells: E. coli BL21(DE3)
In short: (§1)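 Read-out is the rate of β-lactam ring hydrolysis monitored by absorbance: 300 nm for imipenem with KPC-2 and 260 nm for cefotaxime with SHV-5. Recombinant native enzymes were first incubated with compound at 37 °C for 15 min. The IC50 is the inhibitor concentration that halves the initial hydrolysis rate.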

VIM-2 = target: T2, VIM-2 (Escherichia coli, UniProt Q5U7L7); test: β-lactamase enzyme inhibition assay, VIM-2 (nitrocefin substrate); format: biochemical; conditions: Class B; nitrocefin substrate, 486 nm; read-out: VIM-2
T2 construct: made in house; host or cells: E. coli BL21(DE3)
In short: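 Purified VIM-2 preincubated with inhibitor for 15 min at 37° C, then nitrocefin (100 μM final) added and absorbance at 486 nm followed for 10 min. Maximum hydrolysis rates compared with inhibitor-free controls; IC50 fitted from percent inhibition across inhibitor concentrations.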

SHV-5 = target: T3, SHV-5 (Klebsiella pneumoniae, UniProt P0A3M1); test: β-lactamase enzyme inhibition assay, SHV-5 (cefotaxime substrate); format: biochemical
T3 construct: made in house; host or cells: E. coli BL21(DE3)
In short: as §1

[1] = tested on: K. pneumoniae producing the Class D carbapenemase OXA-48; test: Broth microdilution MIC assay with meropenem, K. pneumoniae OXA-48; format: cell-based; conditions: Fixed Mero (meropenem) 4 μg/mL; K. p. 11978 OXA-48
In short: (§2)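 Test compounds in 2-fold dilutions (16 to 0.125 μg/mL final) in CAMHB were combined with a β-lactam at a static 4 μg/ml final. Plates were inoculated per CLSI broth microdilution with the β-lactamase-producing strain (pre-grown 3-5 h) and incubated 16-20 h at 37° C. MIC of test compound was read visually.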

[2] = tested on: E. cloacae expressing the Class C P99; test: Broth microdilution MIC assay with ceftazidime, E. cloacae P99; format: cell-based; conditions: Fixed CAZ (ceftazidime) 4 μg/mL; E. cl. 144200 p99 AmpC
In short: as §2

[3] = tested on: E. coli expressing the Class A Extended Spectrum Beta-Lactamase (ESBL) CTX-M-15; test: Broth microdilution MIC assay with ceftazidime, E. coli CTX-M-15; format: cell-based; conditions: Fixed CAZ (ceftazidime) 4 μg/mL; E. coli ESBL4 CTX-M-15
In short: as §2

[4] = tested on: K. pneumoniae expressing the Class A carbapenemase KPC-2; test: Broth microdilution MIC assay with meropenem, K. pneumoniae KPC-2; format: cell-based; conditions: Fixed Mero (meropenem) 4 μg/mL; K. p. 156319 KPC-3
In short: as §2

[5] = tested on: P. aeruginosa expressing the Class B carbapenemase VIM-2; test: Broth microdilution MIC assay with meropenem, P. aeruginosa VIM-2; format: cell-based; conditions: Fixed Mero (meropenem) 4 μg/mL; P. aerug. 2775 VIM-2
In short: as §2

[6] = tested on: K. pneumoniae expressing the class A carbapenemase KPC-2 and the class B carbapenemase VIM-4; test: Broth microdilution MIC assay with meropenem, K. pneumoniae KPC-2 and VIM-4; format: cell-based; conditions: Fixed Mero (meropenem) 4 μg/mL; K. p. A-1797 KPC-2 VIM-4
In short: as §2

OXA-48 = OXA-48 (UniProt Q6XEC0); test: β-lactamase enzyme inhibition assay, Class D oxacillinase; format: biochemical; conditions: read-out: OXA-48
AmpC = target: T4, AmpC (Enterobacter cloacae, UniProt P05364); test: β-lactamase enzyme inhibition assay, p99 AmpC (nitrocefin substrate); format: biochemical
T4 construct: made in house; host or cells: E. coli BL21(DE3)
In short: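 Read-out is the rate of β-lactam ring hydrolysis monitored by absorbance. Recombinant native enzymes were first incubated with compound at 37 °C for 15 min. The IC50 is the inhibitor concentration that halves the initial hydrolysis rate.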

T4 sequence (P05364 21-381): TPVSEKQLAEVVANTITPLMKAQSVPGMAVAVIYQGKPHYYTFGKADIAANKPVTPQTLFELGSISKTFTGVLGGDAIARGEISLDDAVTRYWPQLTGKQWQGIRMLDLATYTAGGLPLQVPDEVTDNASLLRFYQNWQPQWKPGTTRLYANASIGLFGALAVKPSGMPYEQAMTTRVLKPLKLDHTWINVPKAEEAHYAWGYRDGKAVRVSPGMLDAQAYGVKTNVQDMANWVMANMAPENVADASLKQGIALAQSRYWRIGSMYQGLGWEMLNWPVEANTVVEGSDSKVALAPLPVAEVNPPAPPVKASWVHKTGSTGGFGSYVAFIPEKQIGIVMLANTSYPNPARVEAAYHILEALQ
T3 sequence (P0A3M1 22-286): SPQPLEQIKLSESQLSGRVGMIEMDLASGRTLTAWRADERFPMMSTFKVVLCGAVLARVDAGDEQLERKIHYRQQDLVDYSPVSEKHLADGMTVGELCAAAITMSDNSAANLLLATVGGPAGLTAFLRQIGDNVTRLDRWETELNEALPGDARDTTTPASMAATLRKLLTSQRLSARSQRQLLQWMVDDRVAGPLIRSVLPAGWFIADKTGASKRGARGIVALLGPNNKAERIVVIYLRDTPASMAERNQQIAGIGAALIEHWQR
T1 sequence (Q9F663 25-293, looked up): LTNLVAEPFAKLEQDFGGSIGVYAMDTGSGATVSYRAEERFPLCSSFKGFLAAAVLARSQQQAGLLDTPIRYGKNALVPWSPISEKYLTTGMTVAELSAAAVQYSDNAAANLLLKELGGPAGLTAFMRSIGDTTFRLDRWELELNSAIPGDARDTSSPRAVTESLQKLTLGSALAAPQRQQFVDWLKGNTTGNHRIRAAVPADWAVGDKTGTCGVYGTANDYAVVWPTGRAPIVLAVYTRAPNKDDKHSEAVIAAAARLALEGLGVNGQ

| SMILES | IC50 (KPC-2) [nM] | IC50 (VIM-2) [nM] | IC50 (SHV-5) [nM] | MIC (μg/mL) of Exemplary Compounds in presence of fixed β-lactams: K. p. 11978 OXA-48 [1] | MIC (μg/mL) of Exemplary Compounds in presence of fixed β-lactams: E. cl. 144200 p99 AmpC [2] | MIC (μg/mL) of Exemplary Compounds in presence of fixed β-lactams: E. coli ESBL4 CTX-M-15 [3] | MIC (μg/mL) of Exemplary Compounds in presence of fixed β-lactams: K. p. 156319 KPC-3 [4] | MIC (μg/mL) of Exemplary Compounds in presence of fixed β-lactams: P. aerug. 2775 VIM-2 [5] | MIC (μg/mL) of Exemplary Compounds in presence of fixed β-lactams: K. p. A-1797 KPC-2 VIM-4 [6] | IC50 (OXA-48) [nM] | IC50 (AmpC) [nM] |
| --- | --- | --- | --- | --- | --- | --- | --- | --- | --- | --- | --- |
| CN(C)Cc1nnn(CC(=O)N[C@H]2Cc3cccc(C(=O)O)c3OB2O)c1CN(C)C [Example 38, (R)-3-(2-(4,5-bis((dimethylamino)methyl)-1H-1,2,3-triazol-1-yl)acetamido)-2-hydroxy-3,4-dihydro-2H-benzo[e][1,2]oxaborinine-8-carboxylic acid] | < 100 | 100 to 1000 | 100 to 1000 | B (B represents an MIC between 1 and 16 μg/mL inclusive) | C (C represents an MIC of <1 μg/mL) | B (B represents an MIC between 1 and 16 μg/mL inclusive) | B (B represents an MIC between 1 and 16 μg/mL inclusive) | B (B represents an MIC between 1 and 16 μg/mL inclusive) | B (B represents an MIC between 1 and 16 μg/mL inclusive) | 100 to 1000 | < 100 |
| CC(C)(C(=O)N[C@H]1Cc2cccc(C(=O)O)c2OB1O)n1cc(CNC(=N)N)nn1 [Example 39, (R)-3-(2-(4-(guanidinomethyl)-1H-1,2,3-triazol-1-yl)-2-methylpropanamido)-2-hydroxy-3,4-dihydro-2H-benzo[e][1,2]oxaborinine-8-carboxylic acid] | < 100 | < 100 | < 100 | B (B represents an MIC between 1 and 16 μg/mL inclusive) | C (C represents an MIC of <1 μg/mL) | C (C represents an MIC of <1 μg/mL) | B (B represents an MIC between 1 and 16 μg/mL inclusive) | C (C represents an MIC of <1 μg/mL) | B (B represents an MIC between 1 and 16 μg/mL inclusive) | 100 to 1000 | < 100 |
| O=C(Cc1nnn[nH]1)N[C@H]1Cc2cccc(C(=O)O)c2OB1O [Example 40, (R)-3-(2-(1H-tetrazol-5-yl)acetamido)-2-hydroxy-3,4-dihydro-2H-benzo[e][1,2]oxaborinine-8-carboxylic acid] | < 100 | 1000 to 10000 | < 100 | B (B represents an MIC between 1 and 16 μg/mL inclusive) | C (C represents an MIC of <1 μg/mL) | C (C represents an MIC of <1 μg/mL) | C (C represents an MIC of <1 μg/mL) | B (B represents an MIC between 1 and 16 μg/mL inclusive) | B (B represents an MIC between 1 and 16 μg/mL inclusive) | 100 to 1000 | < 100 |
| NCCn1nnnc1CC(=O)N[C@H]1Cc2cccc(C(=O)O)c2OB1O [Example 41, (R)-3-(2-(1-(2-aminoethyl)-1H-tetrazol-5-yl)acetamido)-2-hydroxy-3,4-dihydro-2H-benzo[e][1,2]oxaborinine-8-carboxylic acid] | < 100 | < 100 | < 100 | B (B represents an MIC between 1 and 16 μg/mL inclusive) | C (C represents an MIC of <1 μg/mL) | C (C represents an MIC of <1 μg/mL) | C (C represents an MIC of <1 μg/mL) | C (C represents an MIC of <1 μg/mL) | C (C represents an MIC of <1 μg/mL) | 100 to 1000 | < 100 |
| NCCn1nnc(CC(=O)N[C@H]2Cc3cccc(C(=O)O)c3OB2O)n1 [Example 42, (R)-3-(2-(2-(2-aminoethyl)-2H-tetrazol-5-yl)acetamido)-2-hydroxy-3,4-dihydro-2H-benzo[e][1,2]oxaborinine-8-carboxylic acid] | < 100 | < 100 | < 100 | B (B represents an MIC between 1 and 16 μg/mL inclusive) | C (C represents an MIC of <1 μg/mL) | C (C represents an MIC of <1 μg/mL) | C (C represents an MIC of <1 μg/mL) | C (C represents an MIC of <1 μg/mL) | C (C represents an MIC of <1 μg/mL) | 100 to 1000 | < 100 |
| O=C(Cn1nnnc1CC(=O)N[C@H]1Cc2cccc(C(=O)O)c2OB1O)N[C@H]1CCNC1 [Example 43, (R)-2-hydroxy-3-(2-(1-(2-oxo-2-(((S)-pyrrolidin-3-yl)amino)ethyl)-1H-tetrazol-5-yl)acetamido)-3,4-dihydro-2H-benzo[e][1,2]oxaborinine-8-carboxylic acid] | < 100 | < 100 | < 100 | B (B represents an MIC between 1 and 16 μg/mL inclusive) | C (C represents an MIC of <1 μg/mL) | C (C represents an MIC of <1 μg/mL) | C (C represents an MIC of <1 μg/mL) | C (C represents an MIC of <1 μg/mL) | B (B represents an MIC between 1 and 16 μg/mL inclusive) | 100 to 1000 | < 100 |
| O=C(Cn1nnc(CC(=O)N[C@H]2Cc3cccc(C(=O)O)c3OB2O)n1)N[C@H]1CCNC1 [Example 44] | < 100 | < 100 | < 100 | B (B represents an MIC between 1 and 16 μg/mL inclusive) | C (C represents an MIC of <1 μg/mL) | C (C represents an MIC of <1 μg/mL) | B (B represents an MIC between 1 and 16 μg/mL inclusive) | C (C represents an MIC of <1 μg/mL) | B (B represents an MIC between 1 and 16 μg/mL inclusive) | 100 to 1000 | < 100 |
| N=C(N)NCCn1nnnc1CC(=O)N[C@H]1Cc2cccc(C(=O)O)c2OB1O [Example 47, (R)-3-(2-(1-(2-guanidinoethyl)-1H-tetrazol-5-yl)acetamido)-2-hydroxy-3,4-dihydro-2H-benzo[e][1,2]oxaborinine-8-carboxylic acid] | < 100 | < 100 | < 100 | C (C represents an MIC of <1 μg/mL) | C (C represents an MIC of <1 μg/mL) | C (C represents an MIC of <1 μg/mL) | C (C represents an MIC of <1 μg/mL) | C (C represents an MIC of <1 μg/mL) | B (B represents an MIC between 1 and 16 μg/mL inclusive) | 1000 to 10000 | < 100 |
